The values below are quoted from earlier work in US9789078B2, “Method of topically treating actinic keratosis with ingenol mebutate cycle therapy” (LEO Laboratories Limited, priority 2012, dated 2017).

Read-outs that look alike come from different tables or passages of the source.

The conditions of this series: first treatment cycle, cited from earlier work.

Turning to `C/C=C(/C)C(=O)O[C@H]1C(C)=C[C@]23C(=O)[C@@H](C=C(CO)[C@@H](O)[C@]12O)[C@H]1[C@@H](C[C@H]3C)C1(C)C` [ingenol mebutate], the “time to resolution of local adverse events without sequelae” value is listed as at most 2 weeks (topical application to the face or scalp) and at most 4 weeks (topical application to the trunk or extremities).
